Results as given in patent publication US20230218566A1, “Composition and Method for Treating Chronic Pain” (Zelira Therapeutics Operations Pty Ltd, priority 2020, published 2023).

Test: Pharmacokinetics of THC and CBD after oral MC formulation (Example 3)
Details: for Tmax / AUC(0-t) / Cmax / half-life: human, plasma; for dose response of Cmax and AUC0-8 with increasing doses: oral doses 2.5 to 12.5 mg
[1] = high fat meal 30 minutes before 2.5 mg dose versus fasted
[2] = oral, delay of Tmax by high fat meal, high fat meal 30 minutes before 2.5 mg dose versus fasted
[3] = po, AUC0-8, 2.5 mg: single oral dose 2.5 mg THC/2.5 mg CBD after 12 hour fast (day 1)
[4] = po, AUC0-8, 5 mg: single oral dose 5 mg THC/5 mg CBD
[5] = po, AUC0-8, 7.5 mg: single oral dose 7.5 mg THC/7.5 mg CBD
[6] = po, 2.5 mg fed: single oral dose 2.5 mg THC/2.5 mg CBD 30 minutes after high fat meal (day 8)
[7] = po, 2.5 mg: single oral dose 2.5 mg THC/2.5 mg CBD after 12 hour fast (day 1)
[8] = po, 5 mg: single oral dose 5 mg THC/5 mg CBD
[9] = po, 7.5 mg: single oral dose 7.5 mg THC/7.5 mg CBD
[10] = po, Tmax, 2.5 mg fed: single oral dose 2.5 mg THC/2.5 mg CBD 30 minutes after high fat meal (day 8)
[11] = po, Tmax, 2.5 mg: single oral dose 2.5 mg THC/2.5 mg CBD after 12 hour fast (day 1)
[12] = po, Tmax, 5 mg: single oral dose 5 mg THC/5 mg CBD
[13] = po, Tmax, 7.5 mg: single oral dose 7.5 mg THC/7.5 mg CBD
[14] = po, t½ (did not change with increasing dose), across doses 2.5 to 12.5 mg
[15] = po, t½, 2.5 mg fed: single oral dose 2.5 mg THC/2.5 mg CBD 30 minutes after high fat meal (day 8)
[16] = po, t½, 2.5 mg: single oral dose 2.5 mg THC/2.5 mg CBD after 12 hour fast (day 1)
[17] = po, t½, 5 mg: single oral dose 5 mg THC/5 mg CBD
[18] = po, t½, 7.5 mg: single oral dose 7.5 mg THC/7.5 mg CBD

| Structure (SMILES) | effect of high fat meal on Cmax and AUC0-8 [1] | Tmax [2] [h] | AUC(0-t) [3] [ng·h/mL] | AUC(0-t) [4] [ng·h/mL] | AUC(0-t) [5] [ng·h/mL] | Cmax [6] [ng/mL] | Cmax [7] [ng/mL] | Cmax [8] [ng/mL] | Cmax [9] [ng/mL] | Tmax [10] [h] | Tmax [11] [h] | Tmax [12] [h] | Tmax [13] [h] | half-life [14] [h] | half-life [15] [h] | half-life [16] [h] | half-life [17] [h] | half-life [18] [h] | dose response of Cmax and AUC0-8 with increasing doses | also measured |
| --- | --- | --- | --- | --- | --- | --- | --- | --- | --- | --- | --- | --- | --- | --- | --- | --- | --- | --- | --- | --- |
| C=C(C)[C@@H]1CCC(C)=C[C@H]1c1c(O)cc(CCCCC)cc1O [CBD, cannabidiol] | significantly increased | ≥ 1 | 1.76 ± 0.84 | 5.09 ± 1.8 | 7.47 ± 2.95 | 0.99 ± 0.45 | 0.62 ± 0.19 | 1.51 ± 0.55 | 2.26 ± 0.95 | 2.78 | 1.83 ± 1 | 1.75 ± 1.04 | 1.64 ± 1.18 | 3.6 | 2.95 ± 0.66 | 4.25 ± 0.54 | 4.54 ± 2.41 | 3.47 ± 0.86 | linear dose response relationship | AUC(0-t) (po, AUC0-8, 2.5 mg fed: single oral dose 2.5 mg THC/2.5 mg CBD 30 minutes after high fat meal (day 8)): 3.67 ng·h/mL |
| CCCCCc1cc(O)c2c(c1)OC(C)(C)[C@@H]1CCC(C)=C[C@@H]21 [THC, Δ^9-tetrahydrocannabinol] | significantly increased | ≥ 1 | 2 ± 1.38 | 6.04 ± 2.07 | 10.6 ± 3.84 | 1.52 ± 0.55 | 0.83 ± 0.29 | 2.56 ± 1.7 | 3.84 ± 1.62 | 2.78 ± 1.2 | 1.67 ± 1.09 | 2.06 ± 1.32 | 1.36 ± 0.63 | 2.5 | 2.63 ± 0.43 | 2.6 ± 0.53 | 2.47 ± 0.88 | 2.41 ± 0.62 | linear dose response relationship | AUC0-8 (2.5 mg fed: single oral dose 2.5 mg THC/2.5 mg CBD 30 minutes after high fat meal (day 8)): 5.86 ± 2.07 (9) ng/mL*h |
